# Measured values taken from patent US20240207302A1, “ANTIVIRAL COMPOUNDS, METHODS FOR THE MANUFACTURING OF COMPOUNDS, ANTIVIRAL PHARMACEUTICAL COMPOSITION, USE OF THE COMPOUNDS AND METHOD FOR THE ORAL TREATMENT OF CORONAVIRUS INFECTION AND RELATED DISEASES THEREOF” (priority 2021, published 2024).
# Experiments:
# [1] = tested on: Salmonella typhimirium TA 97a, TA 98, TA 100, TA 102 and TA 1535; experiment: Bacterial reverse mutation (Ames) test
# [2] = Toxicokinetics in the 28-day study; format: in vivo, mice; conditions: female, CD1, mouse, in vivo, po, female mice
smiles,measurement,setting,value
"c1coc(CNc2ncnc3[nH]cnc23)c1 [MB-905, kinetin]",Mutagenicity,"[1]; TA 97a +S9, 8 μg/mL",−
same,Mutagenicity,"[1]; TA 97a +S9, 40 μg/mL",−
same,Mutagenicity,"[1]; TA 97a +S9, 200 μg/mL",−
same,Mutagenicity,"[1]; TA 97a +S9, 1,000 μg/mL",−
same,Mutagenicity,"[1]; TA 97a +S9, 5,000 μg/mL",−
same,Mutagenicity,"[1]; TA 97a −S9, 8 μg/mL",−
same,Mutagenicity,"[1]; TA 97a −S9, 40 μg/mL",−
same,Mutagenicity,"[1]; TA 97a −S9, 200 μg/mL",−
same,Mutagenicity,"[1]; TA 97a −S9, 1,000 μg/mL",−
same,Mutagenicity,"[1]; TA 97a −S9, 5,000 μg/mL",−
same,Mutagenicity,"[1]; TA 98 +S9, 8 μg/mL",−
same,Mutagenicity,"[1]; TA 98 +S9, 40 μg/mL",−
same,Mutagenicity,"[1]; TA 98 +S9, 200 μg/mL",−
same,Mutagenicity,"[1]; TA 98 +S9, 1,000 μg/mL",−
same,Mutagenicity,"[1]; TA 98 +S9, 5,000 μg/mL",−
same,Mutagenicity,"[1]; TA 98 −S9, 8 μg/mL",−
same,Mutagenicity,"[1]; TA 98 −S9, 40 μg/mL",−
same,Mutagenicity,"[1]; TA 98 −S9, 200 μg/mL",−
same,Mutagenicity,"[1]; TA 98 −S9, 1,000 μg/mL",−
same,Mutagenicity,"[1]; TA 98 −S9, 5,000 μg/mL",−
same,Mutagenicity,"[1]; TA 100 +S9, 8 μg/mL",−
same,Mutagenicity,"[1]; TA 100 +S9, 40 μg/mL",−
same,Mutagenicity,"[1]; TA 100 +S9, 200 μg/mL",−
same,Mutagenicity,"[1]; TA 100 +S9, 1,000 μg/mL",−
same,Mutagenicity,"[1]; TA 100 +S9, 5,000 μg/mL",−
same,Mutagenicity,"[1]; TA 100 −S9, 8 μg/mL",−
same,Mutagenicity,"[1]; TA 100 −S9, 40 μg/mL",−
same,Mutagenicity,"[1]; TA 100 −S9, 200 μg/mL",−
same,Mutagenicity,"[1]; TA 100 −S9, 1,000 μg/mL",−
same,Mutagenicity,"[1]; TA 100 −S9, 5,000 μg/mL",−
same,Mutagenicity,"[1]; TA 102 +S9, 8 μg/mL",−
same,Mutagenicity,"[1]; TA 102 +S9, 40 μg/mL",−
same,Mutagenicity,"[1]; TA 102 +S9, 200 μg/mL",−
same,Mutagenicity,"[1]; TA 102 +S9, 1,000 μg/mL",−
same,Mutagenicity,"[1]; TA 102 +S9, 5,000 μg/mL",−
same,Mutagenicity,"[1]; TA 102 −S9, 8 μg/mL",−
same,Mutagenicity,"[1]; TA 102 −S9, 40 μg/mL",−
same,Mutagenicity,"[1]; TA 102 −S9, 200 μg/mL",−
same,Mutagenicity,"[1]; TA 102 −S9, 1,000 μg/mL",−
same,Mutagenicity,"[1]; TA 102 −S9, 5,000 μg/mL",−
same,Mutagenicity,"[1]; TA 1535 +S9, 8 μg/mL",−
same,Mutagenicity,"[1]; TA 1535 +S9, 40 μg/mL",−
same,Mutagenicity,"[1]; TA 1535 +S9, 200 μg/mL",−
same,Mutagenicity,"[1]; TA 1535 +S9, 1,000 μg/mL",−
same,Mutagenicity,"[1]; TA 1535 +S9, 5,000 μg/mL",−
same,Mutagenicity,"[1]; TA 1535 −S9, 8 μg/mL",−
same,Mutagenicity,"[1]; TA 1535 −S9, 40 μg/mL",−
same,Mutagenicity,"[1]; TA 1535 −S9, 200 μg/mL",−
same,Mutagenicity,"[1]; TA 1535 −S9, 1,000 μg/mL",−
same,Mutagenicity,"[1]; TA 1535 −S9, 5,000 μg/mL",−
same,mutagenic activity in the reverse mutation test,"[1]; all strains, absence and presence of S9",no mutagenic activity
same,AUC,"[2]; 10 mg/kg, 10 mg/kg, Day 0",422 ng·h/mL
same,Cmax,"[2]; 10 mg/kg, 10 mg/kg, Day 0",288 ng/mL
same,Tmax,"[2]; 10 mg/kg, 10 mg/kg, Day 0",15 min
same,AUC,"[2]; 10 mg/kg, 10 mg/kg, Day 28",56.6 ng·h/mL
same,Cmax,"[2]; 10 mg/kg, 10 mg/kg, Day 28",95 ng/mL
same,Tmax,"[2]; 10 mg/kg, 10 mg/kg, Day 28",15 min
same,AUC,"[2]; 80 mg/kg, 80 mg/kg, Day 0",5010 ng·h/mL
same,Cmax,"[2]; 80 mg/kg, 80 mg/kg, Day 0",747 ng/mL
same,Tmax,"[2]; 80 mg/kg, 80 mg/kg, Day 0",15 min
same,half-life,"[2]; 80 mg/kg, 80 mg/kg, Day 0",1550 min
same,AUC,"[2]; 80 mg/kg, 80 mg/kg, Day 28",1590 ng·h/mL
same,Cmax,"[2]; 80 mg/kg, 80 mg/kg, Day 28",464 ng/mL
same,Tmax,"[2]; 80 mg/kg, 80 mg/kg, Day 28",15 min
same,half-life,"[2]; 80 mg/kg, 80 mg/kg, Day 28",65.4 min
